From ChEMBL document CHEMBL1201862, “PubChem BioAssay data set” (2004)
Active and inactive are the calls of the source.

Experiments:
P388/ADR = experiment: cells; format: functional; conditions: Mus musculus
SN12K1 = experiment: cells; format: functional; conditions: Homo sapiens
P388 = experiment: cells; format: functional; conditions: Mus musculus
[1] = target: T1, Short transient receptor potential channel 4 (Mus musculus, UniProt Q9QUQ5); experiment: mouse TRPC4 channel inhibitors, dose response, cell-based, HEK293 TRPC4/mu-opioid, Fluo-4 calcium (AID 434942); format: functional;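 further: potency of inhibitors blocking the TRPC4 calcium response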
T1 sequence (Q9QUQ5 whole entry): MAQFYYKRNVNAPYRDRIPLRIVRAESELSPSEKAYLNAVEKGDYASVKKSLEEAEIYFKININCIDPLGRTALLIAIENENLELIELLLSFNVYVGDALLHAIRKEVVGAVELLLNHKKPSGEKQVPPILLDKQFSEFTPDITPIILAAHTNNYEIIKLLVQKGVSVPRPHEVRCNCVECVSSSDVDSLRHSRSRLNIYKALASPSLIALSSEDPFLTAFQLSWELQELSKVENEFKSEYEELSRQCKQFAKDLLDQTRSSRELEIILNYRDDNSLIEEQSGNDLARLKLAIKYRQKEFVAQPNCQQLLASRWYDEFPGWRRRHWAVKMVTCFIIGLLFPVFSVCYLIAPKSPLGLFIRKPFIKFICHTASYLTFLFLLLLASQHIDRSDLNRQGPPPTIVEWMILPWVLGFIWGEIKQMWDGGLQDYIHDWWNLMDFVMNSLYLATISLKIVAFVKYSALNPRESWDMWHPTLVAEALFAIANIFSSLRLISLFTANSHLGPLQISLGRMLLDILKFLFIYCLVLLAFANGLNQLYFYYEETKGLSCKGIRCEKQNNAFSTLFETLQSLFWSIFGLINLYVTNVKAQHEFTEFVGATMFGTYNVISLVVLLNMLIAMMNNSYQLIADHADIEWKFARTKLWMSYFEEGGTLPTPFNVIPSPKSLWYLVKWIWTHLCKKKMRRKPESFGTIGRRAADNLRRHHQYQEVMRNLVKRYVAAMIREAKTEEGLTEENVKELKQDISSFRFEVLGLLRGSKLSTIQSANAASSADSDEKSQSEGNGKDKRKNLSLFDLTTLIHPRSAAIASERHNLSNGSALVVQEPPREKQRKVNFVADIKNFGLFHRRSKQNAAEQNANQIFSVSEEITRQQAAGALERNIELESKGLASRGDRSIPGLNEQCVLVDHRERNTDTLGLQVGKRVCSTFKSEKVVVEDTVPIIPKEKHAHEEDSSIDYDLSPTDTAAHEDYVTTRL

[2] = target: T2, Carboxy-terminal domain RNA polymerase II polypeptide A small phosphatase 1 (Homo sapiens, UniProt Q9GZU7); experiment: inhibitors of CTDSP1, concentration-response testing, biochemical assay, absorbance-based, actives from ultra-high-throughput screening (AID 540297); format: functional
T2 sequence (Q9GZU7 whole entry): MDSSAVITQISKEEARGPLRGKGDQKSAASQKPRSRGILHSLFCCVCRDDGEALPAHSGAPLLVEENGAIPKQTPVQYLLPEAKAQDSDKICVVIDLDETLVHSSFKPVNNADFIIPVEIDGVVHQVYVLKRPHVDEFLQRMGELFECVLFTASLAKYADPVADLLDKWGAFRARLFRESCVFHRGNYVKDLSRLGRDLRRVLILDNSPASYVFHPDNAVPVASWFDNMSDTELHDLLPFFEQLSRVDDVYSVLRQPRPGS

[3] = target: T3, Ubiquitin-conjugating enzyme E2 N (Homo sapiens, UniProt P61088); format: functional;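 further: Dose-response confirmation in a TR-FRET assay detecting UBC13-driven polyubiquitin chain formation, inhibition measured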
T3 sequence (P61088 whole entry): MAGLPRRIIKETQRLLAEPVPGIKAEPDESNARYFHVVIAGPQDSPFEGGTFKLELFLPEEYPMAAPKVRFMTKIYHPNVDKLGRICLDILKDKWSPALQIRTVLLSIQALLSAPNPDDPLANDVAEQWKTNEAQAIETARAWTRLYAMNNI

[4] = target: Induced myeloid leukemia cell differentiation protein Mcl-1 (Homo sapiens, UniProt Q07820); format: functional
Sequence of Induced myeloid leukemia cell differentiation protein Mcl-1 (Q07820 whole entry): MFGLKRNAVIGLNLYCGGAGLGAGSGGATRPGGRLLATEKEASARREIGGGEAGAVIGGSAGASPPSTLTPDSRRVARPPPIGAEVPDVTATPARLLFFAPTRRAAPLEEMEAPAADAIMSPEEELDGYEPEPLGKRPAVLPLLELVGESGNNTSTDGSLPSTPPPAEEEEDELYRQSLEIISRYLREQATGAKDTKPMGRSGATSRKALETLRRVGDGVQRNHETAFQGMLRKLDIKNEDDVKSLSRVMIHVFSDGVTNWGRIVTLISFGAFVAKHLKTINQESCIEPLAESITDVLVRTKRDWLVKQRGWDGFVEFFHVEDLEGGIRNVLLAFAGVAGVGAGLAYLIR

HEK293 = experiment: inhibitors of LMP1-driven NF-kB reporter, dose response, cell-based, HEK293, luciferase, cherry-pick (AID 588343); format: functional; conditions: Homo sapiens
[5] = inhibitors of firefly luciferase expression or activity, dose response, H4 neuroglioma cells, luminescence (AID 1990); format: functional, cell-based
[6] = Luminescence Cell-Based Dose Response HTS to Identify Inhibitors of 5'UTR Stem-Loop Driven Prion Protein mRNA Translation in H4 Neuroglioblastoma Cells. [Related pubchem assays: 1827 (Project Summary), 1813 (Primary HTS)]; format: functional
[7] = inhibitors of SNCA 5'UTR-driven reporter translation, confirmation, H4 neuroglioma cells, luminescence (AID 1988); format: functional, cell-based
Paired box protein Pax-8 = Paired box protein Pax-8 (Homo sapiens, UniProt Q06710); experiment: inhibitors of PAX8-driven TPO luciferase reporter, dose response, RMG-I cells, cherry-pick (AID 687027); format: functional, cell-based;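 further: luciferase reporter driven by Pax8 target thyroperoxidase promoter measured by SteadyGlo luminescence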
Sequence of Paired box protein Pax-8 (Q06710 whole entry, the tested form may be a part): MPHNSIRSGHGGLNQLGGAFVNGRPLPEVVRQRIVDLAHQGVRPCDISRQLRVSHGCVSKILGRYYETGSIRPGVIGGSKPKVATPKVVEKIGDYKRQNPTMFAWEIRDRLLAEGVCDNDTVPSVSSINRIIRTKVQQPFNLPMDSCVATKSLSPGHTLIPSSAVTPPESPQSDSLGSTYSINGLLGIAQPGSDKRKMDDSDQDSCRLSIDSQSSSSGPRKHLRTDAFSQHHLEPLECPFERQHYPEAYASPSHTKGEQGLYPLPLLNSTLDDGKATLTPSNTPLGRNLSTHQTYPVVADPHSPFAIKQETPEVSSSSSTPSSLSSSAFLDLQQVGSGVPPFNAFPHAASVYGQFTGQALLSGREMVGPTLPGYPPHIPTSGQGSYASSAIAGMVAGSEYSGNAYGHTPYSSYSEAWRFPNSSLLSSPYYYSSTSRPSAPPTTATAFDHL

Fatty acid synthase [8] = target: T4, Fatty acid synthase (Homo sapiens, UniProt P49327); experiment: FAS thioesterase domain inhibitors, dose response, biochemical, endpoint fluorescence intensity, uHTS hits (AID 624327); format: functional;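 further: fluorescence from hydrolysis of an O-methyl fluorescein acyl ester substrate by the enzyme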
T4 sequence (P49327 whole entry, the tested form may be a part): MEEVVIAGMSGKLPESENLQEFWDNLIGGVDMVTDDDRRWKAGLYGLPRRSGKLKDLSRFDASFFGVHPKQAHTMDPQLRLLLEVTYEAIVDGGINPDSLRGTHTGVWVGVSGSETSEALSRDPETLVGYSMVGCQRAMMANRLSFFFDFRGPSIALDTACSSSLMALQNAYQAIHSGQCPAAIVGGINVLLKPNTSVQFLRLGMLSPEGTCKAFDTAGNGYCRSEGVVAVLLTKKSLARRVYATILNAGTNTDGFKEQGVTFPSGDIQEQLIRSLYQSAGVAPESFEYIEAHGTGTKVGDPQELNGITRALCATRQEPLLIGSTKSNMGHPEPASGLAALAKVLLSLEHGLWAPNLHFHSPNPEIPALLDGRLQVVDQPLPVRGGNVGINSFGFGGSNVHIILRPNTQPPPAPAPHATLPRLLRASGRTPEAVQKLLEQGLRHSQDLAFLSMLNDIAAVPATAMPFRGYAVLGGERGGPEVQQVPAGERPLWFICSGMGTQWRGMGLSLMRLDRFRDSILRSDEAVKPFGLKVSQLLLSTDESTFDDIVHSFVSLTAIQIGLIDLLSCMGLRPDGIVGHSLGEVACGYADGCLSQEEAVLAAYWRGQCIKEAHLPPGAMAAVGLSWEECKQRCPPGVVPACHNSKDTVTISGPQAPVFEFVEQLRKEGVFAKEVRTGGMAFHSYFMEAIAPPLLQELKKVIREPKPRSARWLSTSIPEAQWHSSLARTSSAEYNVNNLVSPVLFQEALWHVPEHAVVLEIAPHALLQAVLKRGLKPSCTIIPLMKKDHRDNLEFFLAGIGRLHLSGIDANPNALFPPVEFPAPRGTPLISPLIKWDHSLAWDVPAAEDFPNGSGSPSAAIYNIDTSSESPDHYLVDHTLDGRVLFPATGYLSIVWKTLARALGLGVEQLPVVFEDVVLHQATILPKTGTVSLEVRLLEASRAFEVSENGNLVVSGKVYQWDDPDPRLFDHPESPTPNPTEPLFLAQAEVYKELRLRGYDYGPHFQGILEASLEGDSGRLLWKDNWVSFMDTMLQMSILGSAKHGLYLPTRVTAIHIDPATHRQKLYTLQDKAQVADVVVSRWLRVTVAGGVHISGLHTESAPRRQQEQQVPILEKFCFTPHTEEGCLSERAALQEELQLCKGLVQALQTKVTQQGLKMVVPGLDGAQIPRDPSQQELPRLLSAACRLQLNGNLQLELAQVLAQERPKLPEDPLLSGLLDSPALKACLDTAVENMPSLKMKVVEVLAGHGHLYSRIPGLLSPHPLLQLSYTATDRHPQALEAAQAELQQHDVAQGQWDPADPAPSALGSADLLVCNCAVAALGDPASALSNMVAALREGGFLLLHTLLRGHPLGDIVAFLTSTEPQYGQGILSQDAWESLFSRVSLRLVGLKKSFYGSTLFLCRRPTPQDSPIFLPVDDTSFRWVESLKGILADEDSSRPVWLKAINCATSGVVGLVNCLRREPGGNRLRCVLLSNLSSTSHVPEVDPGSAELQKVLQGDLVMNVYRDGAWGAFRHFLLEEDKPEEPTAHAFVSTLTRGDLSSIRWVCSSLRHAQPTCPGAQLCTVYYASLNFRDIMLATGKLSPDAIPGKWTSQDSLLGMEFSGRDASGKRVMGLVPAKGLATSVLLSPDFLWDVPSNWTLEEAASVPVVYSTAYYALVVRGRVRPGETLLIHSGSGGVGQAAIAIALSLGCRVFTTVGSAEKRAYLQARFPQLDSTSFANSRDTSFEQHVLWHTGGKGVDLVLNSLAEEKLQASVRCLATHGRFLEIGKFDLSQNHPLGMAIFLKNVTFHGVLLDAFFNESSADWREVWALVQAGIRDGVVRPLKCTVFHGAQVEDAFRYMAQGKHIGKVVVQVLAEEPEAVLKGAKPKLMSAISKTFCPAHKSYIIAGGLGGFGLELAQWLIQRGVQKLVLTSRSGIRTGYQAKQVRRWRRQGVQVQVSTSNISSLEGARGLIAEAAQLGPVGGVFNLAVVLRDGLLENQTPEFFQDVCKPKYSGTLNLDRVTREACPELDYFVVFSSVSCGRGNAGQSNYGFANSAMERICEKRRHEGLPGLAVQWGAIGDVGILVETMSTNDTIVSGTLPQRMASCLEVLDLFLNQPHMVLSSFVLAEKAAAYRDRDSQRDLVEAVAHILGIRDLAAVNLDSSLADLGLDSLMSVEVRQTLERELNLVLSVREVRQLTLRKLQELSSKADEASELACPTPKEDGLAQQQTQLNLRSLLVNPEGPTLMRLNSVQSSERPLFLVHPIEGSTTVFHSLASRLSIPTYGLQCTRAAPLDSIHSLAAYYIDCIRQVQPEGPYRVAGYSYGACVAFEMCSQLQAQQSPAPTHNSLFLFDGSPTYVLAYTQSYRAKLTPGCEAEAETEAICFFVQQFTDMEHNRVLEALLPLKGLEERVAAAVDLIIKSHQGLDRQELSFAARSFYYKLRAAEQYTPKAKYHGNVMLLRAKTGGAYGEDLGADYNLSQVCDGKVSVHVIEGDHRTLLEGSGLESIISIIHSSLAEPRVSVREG

cells = format: functional
Fatty acid synthase [9] = target: T4, Fatty acid synthase; experiment: FAS thioesterase domain inhibitors, dose response, biochemical, kinetic fluorescence intensity (AID 624326); format: functional;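 further: rate of fluorescence rise from hydrolysis of a fluorogenic O-methyl fluorescein ester substrate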
Protein skinhead-1 = target: T5, Protein skinhead-1 (Caenorhabditis elegans, UniProt P34707); format: functional
T5 sequence (P34707 whole entry): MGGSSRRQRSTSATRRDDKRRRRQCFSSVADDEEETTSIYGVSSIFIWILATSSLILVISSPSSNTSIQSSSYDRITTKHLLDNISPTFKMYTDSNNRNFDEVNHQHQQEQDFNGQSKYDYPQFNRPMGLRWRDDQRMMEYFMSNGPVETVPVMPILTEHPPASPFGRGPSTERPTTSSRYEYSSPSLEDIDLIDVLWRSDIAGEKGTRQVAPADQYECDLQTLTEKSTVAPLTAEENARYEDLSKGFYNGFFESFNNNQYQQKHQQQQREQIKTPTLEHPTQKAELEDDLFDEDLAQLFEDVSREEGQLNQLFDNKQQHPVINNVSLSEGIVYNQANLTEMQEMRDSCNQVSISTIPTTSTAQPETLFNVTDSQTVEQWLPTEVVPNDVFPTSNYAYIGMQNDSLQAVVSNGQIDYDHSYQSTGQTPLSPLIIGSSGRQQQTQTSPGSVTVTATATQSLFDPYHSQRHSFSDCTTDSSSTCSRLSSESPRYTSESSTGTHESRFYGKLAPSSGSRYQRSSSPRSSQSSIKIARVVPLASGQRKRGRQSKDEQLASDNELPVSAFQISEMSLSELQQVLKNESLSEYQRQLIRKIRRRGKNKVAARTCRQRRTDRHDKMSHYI

Large T antigen = Large T antigen (Simian virus 40, UniProt P03070); format: functional, Betapolyomavirus macacae;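 further: Confirmatory-stage PubChem screen for compounds that inhibit SV40 T antigen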
Sequence of Large T antigen (P03070 whole entry): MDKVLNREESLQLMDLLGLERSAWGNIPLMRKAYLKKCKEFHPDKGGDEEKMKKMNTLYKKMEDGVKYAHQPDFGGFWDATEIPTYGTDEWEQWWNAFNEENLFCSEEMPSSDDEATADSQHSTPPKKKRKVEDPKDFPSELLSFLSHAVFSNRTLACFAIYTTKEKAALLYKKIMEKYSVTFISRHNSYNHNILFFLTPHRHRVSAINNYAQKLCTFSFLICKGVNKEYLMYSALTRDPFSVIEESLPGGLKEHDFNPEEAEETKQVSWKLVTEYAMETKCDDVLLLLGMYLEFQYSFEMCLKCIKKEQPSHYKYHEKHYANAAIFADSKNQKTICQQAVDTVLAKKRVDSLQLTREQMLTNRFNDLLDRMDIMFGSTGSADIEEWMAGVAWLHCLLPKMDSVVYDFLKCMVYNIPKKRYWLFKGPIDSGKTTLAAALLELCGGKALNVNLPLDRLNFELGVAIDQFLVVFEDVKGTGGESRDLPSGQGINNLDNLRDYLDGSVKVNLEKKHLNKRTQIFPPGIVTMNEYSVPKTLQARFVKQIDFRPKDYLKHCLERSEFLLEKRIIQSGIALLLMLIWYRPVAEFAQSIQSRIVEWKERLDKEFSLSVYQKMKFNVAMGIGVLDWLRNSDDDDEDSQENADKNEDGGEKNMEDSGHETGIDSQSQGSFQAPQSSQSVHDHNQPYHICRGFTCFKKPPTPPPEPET

[10] = growth suppression of PTEN-null colon cells, dose response, cell-based, HCT116 PTEN knockout (AID 1047); format: functional;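 further: HCT116 colon tumor cells with PTEN knocked out; cells exposed to compound for 60 hours before readout; potency for loss of cell viability measured by luminescence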
[11] = growth suppression of beta-catenin-knockout colon cells, dose response, cell-based, HCT116, human colon tumor (AID 1045); format: functional;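 further: HCT116 colon tumor cells with beta catenin knocked out; cells exposed to compound for 60 hours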
[12] = inhibitors of clade B AD8 Env fusion, dose response, cell-based, cherry-pick (AID 652062); format: functional;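 further: luciferase signal from cell-cell fusion driven by HIV-1 clade B AD8 Env; potency is for inhibitors of fusion seen as a drop in luminescence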
[13] = inhibitors of HIV Env-driven cell fusion, dose response, cherry-pick (AID 652057); format: functional, cell-based

Compound: C=C1C(=O)OC2CC(C)C3C4OC4C(O)C3(C)C(O)C12 (centres undefined)
- GI50 (P388/ADR): 8.85 µM (inactive)
- GI50 (SN12K1): 24.8 µM (inactive)
- GI50 (P388): 8.02 µM (inactive)

Compound: Cc1ccc(Sc2ccc(CO)cc2[N+](=O)[O-])cc1
- EC50 [1]: 3.35 µM (active)

Compound: CCN(CC)S(=O)(=O)c1ccc(C(=O)OCC(=O)NCc2ccco2)cc1
- IC50 [2]: 11.1 µM (active)

Compound: O=C(COC(=O)c1ccccc1NCCO)Nc1cccc(S(=O)(=O)NC2=NCCCCC2)c1
- IC50 [2]: 10.2 µM (active)

Compound: COc1ccc(N(C(=O)c2snc(C(N)=O)c2N)C(C(=O)NC2CCCC2)c2ccc3ncccc3c2)cc1 (centres undefined)
- IC50 [3]: > 20 µM (inactive)

Compound: CCC/C=C/C=C\C(=O)O[C@@H]1[C@@H](C)[C@]2(O)[C@@H]3C=C(C)C(=O)[C@H]3CC(COC(C)=O)=C[C@H]2[C@@H]2C(C)(C)[C@]12OC(C)=O
- GI50 (P388/ADR): 1.79 µM (inactive)
- GI50 (SN12K1): 1.98 µM (inactive)
- GI50 (P388): 1.12 µM (inactive)

Compound: CCNc1nc(NCC)n2c(SCC(=O)Nc3cccc(Cl)c3)nnc2n1
- IC50 [2]: 16.2 µM (active)

Compound: CN(CCNC(=O)CCCOc1cc(=O)n(C)c2ccccc12)Cc1ccccc1
- IC50 [3]: > 20 µM (inactive)

Compound: Oc1ccc(/C=N/Nc2nc(-c3cccnc3)nc3ccccc23)c(O)c1
- IC50 [4]: 52.8 µM (not active)

Compound: NC(=S)N/N=C/c1ccc(OC(=O)COc2ccccc2Cl)cn1
- GI50 (P388/ADR): 4.97 µM (inactive)
- GI50 (SN12K1): 9.29 µM (inactive)
- GI50 (P388): 3.31 µM (inactive)

Compound: Cc1cc2[nH]c3ccccc3c2c(C)n1
- EC50 [1]: 1.68 µM (active)

Compound: COCCN(C(=O)Cn1nnc2ccccc21)C(C(=O)NC1CCCCC1)c1ccc(OC)cc1OC (centres undefined)
- IC50 [2]: 14.9 µM (active)

Compound: O=C(Nc1cnc2ccccn2c1=O)c1ccc(Cl)cc1Cl
- AC50 (HEK293): 2.55 µM (active)
- EC50 [5]: 10.1 µM (inconclusive)
- EC50 [6]: 5 µM (active)
- EC50 [7]: 5.78 µM (active)

Compound: N#Cc1ccc(NC(=O)COC(=O)C2CCC2)cc1
- AC50 (Paired box protein Pax-8): 21.7 µM (active)

Compound: O=C(OCC(=O)N1CCc2ccccc2C1)c1cccc([N+](=O)[O-])c1
- EC50 [1]: 2.37 µM (active)
- IC50 (Fatty acid synthase [8]): 9.14 µM (active)
- IC50 (cells): 23.1 µM (active)
- IC50 (Fatty acid synthase [9]): 10.9 µM (active)

Compound: Cc1ccc(C(=O)Nc2sc(Cc3ccc4c(c3)OCO4)c(C)c2C(N)=O)cc1
- AC50 (HEK293): 130 µM (active)

Compound: C=C(NC(=O)C(=C)NC(=O)c1csc(C2=NC3c4csc(n4)C4NC(=O)c5csc(n5)C(C(C)(O)C(C)O)NC(=O)C5CSC(=N5)/C(=C/C)NC(=O)C(C(C)O)NC(=O)c5csc(n5)C3(CC2)NC(=O)C(C)NC(=O)C(=C)NC(=O)C(C)NC(=O)C(C(C)CC)NC2C=Cc3c(C(C)O)cc(nc3C2O)C(=O)OC4C)n1)C(N)=O (centres undefined)
- GI50 (P388/ADR): 1.27 µM (inactive)
- GI50 (SN12K1): 0.968 µM (active)
- GI50 (P388): 0.0407 µM (active)

Compound: Cc1ccc(O)c(C(=O)c2cnn(C(=O)COc3ccc(Cl)cc3)c2)c1
- IC50 [2]: 3.89 µM (active)

Compound: CCCn1cnc2cc(NCc3cccc(OC)c3O)ccc21
- IC50 (Protein skinhead-1): > 100 µM (inactive)
- IC50 (Large T antigen): 22.1 µM (active)

Compound: COC(=O)c1cccc(NC(S)=Nc2cccc(Cl)c2Cl)c1
- EC50 [1]: 8.41 µM (active)

Compound: CSc1sc(=S)sc1SC
- GI50 (P388/ADR): > 100 µM (inactive)
- GI50 (SN12K1): > 63.1 µM (inactive)
- GI50 (P388): 60.8 µM (inactive)

Compound: O=C1c2cccc3cc4ccccc4c(c23)C(=O)N1CCNCCN1C(=O)c2cccc3cc4ccccc4c(c23)C1=O
- GI50 (P388/ADR): 0.16 µM (active)
- GI50 (SN12K1): 1.91 µM (inactive)
- GI50 (P388): 0.27 µM (active)

Compound: COC(=O)C1=CC[C@@H]2C(C(=O)O)=CO[C@@H](OC3OC(CO)C(O)C(O)C3O)[C@H]12 (some centres undefined)
- GI50 (P388/ADR): > 139 µM (inactive)
- GI50 (SN12K1): > 300 µM (inactive)
- GI50 (P388): > 300 µM (inactive)

Compound: CCOC(=O)CNC(=O)N(CC)C12CC3CC(CC(C3)C1)C2
- GI50 (P388/ADR): 131 µM (inactive)
- GI50 (SN12K1): 109 µM (inactive)
- GI50 (P388): 79.1 µM (inactive)

Compound: COc1ccc(S(=O)(=O)c2cnc(S)nc2O)cc1Cl
- IC50 [2]: 8.64 µM (active)

Compound: CCC1OC(=O)C(C)C(OC2CC(C)(O)C(O)C(C)O2)C(C)C(O)C(C)(O)CC(C)C(=O)C(C)C(O)C1C (centres undefined)
- GI50 (P388/ADR): > 300 µM (inactive)
- GI50 (SN12K1): > 300 µM (inactive)
- GI50 (P388): > 300 µM (inactive)

Compound: CC(=O)N(c1ccc(Cl)cc1)c1c[nH]c2ccccc12
- EC50 [1]: 18.8 µM (active)

Compound: O=C(Nc1ccccc1Cl)c1cnccn1
- IC50 [4]: 8.55 µM (not active)

Compound: COc1cccc(C(=O)Nc2ccc3nc(N4CCN(c5ncccn5)CC4)cc(C)c3c2)c1OC
- IC50 [4]: 5.6 µM (active)
- EC50 [10]: 5.74 µM (active)
- EC50 [11]: 6.95 µM (active)

Compound: COCCn1c(SCC(=O)NCc2ccco2)nnc1-c1c[nH]c2ccccc12
- AC50 (HEK293): 283 µM (active)

Compound: COc1cccc(S(=O)(=O)N(C)C[C@H]2Oc3cc(C4=CCCCC4)ccc3S(=O)(=O)N([C@H](C)CO)C[C@H]2C)c1
- AC50 [12]: 2.06 µM (active)
- AC50 [13]: 0.409 µM (active)
